IC50 data for one compound are collected here from US6534523B1, “Hepatitis C inhibitor tri-peptides” (Boehringer Ingelheim (Canada) Ltd., priority 1998, dated 2003).

Assay [1] has as its target T1, HCV NS3 protease type 1b / NS4A cofactor peptide (Hepatitis C virus genotype 1b, UniProt P26663).
T1 construct: recombinant HCV NS3 protease (amino acid 1027 to 1206) was cloned in the pET11d bacterial expression vector; made in house; host or cells: E. coli BL21(DE3)pLysS
The assay can be described thus: Recombinant HCV NS3 protease/NS4A cofactor peptide radiometric assay (Example 37). The assay is classed as biochemical, HCV genotype 1b. Here is the method: Recombinant HCV NS3 Protease/NS4A Cofactor Peptide Radiometric Assay
The enzyme was cloned, expressed and prepared according to the protocol described in Example 36. The enzyme was stored at −80° C., thawed on ice and diluted just prior to use in the assay buffer containing the NS4A cofactor peptide.
The substrate used for the NS3 protease/NS4A cofactor peptide radiometric assay, DDIVPC-SMSYTW, is cleaved between the cysteine and the serine residues by the enzyme. The sequence DDIVPC-SMSYTW corresponds to the NS5A/NS5B natural cleavage site in which the cysteine residue in P2 has been substituted for a proline. The peptide substrate DDIVPC-SMSYTW and the tracer biotin-DDIVPC-SMS[^125I-Y]TW are incubated with the recombinant NS3 protease and the NS4A peptide cofactor […] (molar ratio enzyme:cofactor 1:100) in the absence or presence of inhibitors. The separation of substrate from products is performed by adding avidin-coated agarose beads to the assay mixture followed by filtration. The amount of SMS[^125I-Y]TW product found in the filtrate allows for the calculation of the percentage of substrate conversion and of the percentage of inhibition.
Tris and Tris-HCl (UltraPure) were obtained from Gibco-BRL. […]
The filtrates were counted on a Packard TopCount instrument using a ^125I-liquid protocol for 1 minute.
The % inhibition was calculated with the following equation: […]

For assay [2], the target named is T2, human liver cathepsin B (Cat B) (Homo sapiens, UniProt P07858).
T2 construct: from tissue; host or cells: human liver
The assay can be described thus: Specificity assay (Example 40), human liver cathepsin B. The assay is classed as biochemical. How it is done:
The specificity of the compounds was determined against a variety of serine proteases: human leukocyte elastase, porcine pancreatic elastase and bovine pancreatic α-chymotrypsin and one cysteine protease: human liver cathepsin B. In all cases a 96-well plate format protocol using a calorimetric p-nitroaniline (pNA) substrate specific for each enzyme was used. Each assay included a 1 h enzyme-inhibitor pre-incubation at 30° C. followed by addition of substrate and hydrolysis to ≈30% conversion as measured on a UV Thermomax® microplate reader. Substrate concentrations were kept as low as possible compared to KM to reduce substrate competition. Compound concentrations varied from 300 to 0.06 μM depending on their potency.
The final conditions for each assay were as follows:
[100 mM NaHPO4 pH 6, 0.1 mM EDTA, 3% DMSO, 1 mM TCEP, 0.01% Tween-20, 30 μM Z-FR-pNA and 5 nM cathepsin B (the stock enzyme was activated in buffer containing 20 mM TCEP before use)].
The sequential 2-fold dilutions of the inhibitor solution were performed on a separate plate by the liquid handler using 50 mM Tris-HCl pH 8, 50 mM NaCl, 0.1 mM EDTA, 0.02% Tween-20, 15% DMSO. All other specificity assays were performed in a similar fashion.
The percentage of inhibition was calculated using the formula:
[1-((UVinh−UVblank)/(UVctl−UVblank))]×100 […]

pIC50: −log10 of the molar value.

T1 sequence (P26663 1027-1206, other chains not shown): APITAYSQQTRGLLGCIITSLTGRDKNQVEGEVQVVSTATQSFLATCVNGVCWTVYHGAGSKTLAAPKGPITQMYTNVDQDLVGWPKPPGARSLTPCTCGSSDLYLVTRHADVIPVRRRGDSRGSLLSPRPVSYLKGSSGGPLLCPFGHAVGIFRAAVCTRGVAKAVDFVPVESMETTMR

One may read the pIC50 as the IC50 on a negative log10 scale, so that one unit is a factor of ten. Consider `C=C[C@@H]1C[C@]1(NC(=O)[C@@H]1C[C@@H](Oc2cc(-c3ccccc3)nc3cc(OC)ccc23)CN1C(=O)[C@@H](NC(=O)OC(C)(C)C)C(C)C)C(=O)O` [compound 601], for which the pIC50 in assay [1] is 7.30; in assay [2], less than 4.12.
